Experimental data as given in BindingDB's records for doi:10.1038/nchembio.2007.34 (GlaxoSmithKline, 2007).

Target: T1, Kinesin-like protein KIF11 (Homo sapiens, UniProt P52732)
T1 sequence (P52732 whole entry): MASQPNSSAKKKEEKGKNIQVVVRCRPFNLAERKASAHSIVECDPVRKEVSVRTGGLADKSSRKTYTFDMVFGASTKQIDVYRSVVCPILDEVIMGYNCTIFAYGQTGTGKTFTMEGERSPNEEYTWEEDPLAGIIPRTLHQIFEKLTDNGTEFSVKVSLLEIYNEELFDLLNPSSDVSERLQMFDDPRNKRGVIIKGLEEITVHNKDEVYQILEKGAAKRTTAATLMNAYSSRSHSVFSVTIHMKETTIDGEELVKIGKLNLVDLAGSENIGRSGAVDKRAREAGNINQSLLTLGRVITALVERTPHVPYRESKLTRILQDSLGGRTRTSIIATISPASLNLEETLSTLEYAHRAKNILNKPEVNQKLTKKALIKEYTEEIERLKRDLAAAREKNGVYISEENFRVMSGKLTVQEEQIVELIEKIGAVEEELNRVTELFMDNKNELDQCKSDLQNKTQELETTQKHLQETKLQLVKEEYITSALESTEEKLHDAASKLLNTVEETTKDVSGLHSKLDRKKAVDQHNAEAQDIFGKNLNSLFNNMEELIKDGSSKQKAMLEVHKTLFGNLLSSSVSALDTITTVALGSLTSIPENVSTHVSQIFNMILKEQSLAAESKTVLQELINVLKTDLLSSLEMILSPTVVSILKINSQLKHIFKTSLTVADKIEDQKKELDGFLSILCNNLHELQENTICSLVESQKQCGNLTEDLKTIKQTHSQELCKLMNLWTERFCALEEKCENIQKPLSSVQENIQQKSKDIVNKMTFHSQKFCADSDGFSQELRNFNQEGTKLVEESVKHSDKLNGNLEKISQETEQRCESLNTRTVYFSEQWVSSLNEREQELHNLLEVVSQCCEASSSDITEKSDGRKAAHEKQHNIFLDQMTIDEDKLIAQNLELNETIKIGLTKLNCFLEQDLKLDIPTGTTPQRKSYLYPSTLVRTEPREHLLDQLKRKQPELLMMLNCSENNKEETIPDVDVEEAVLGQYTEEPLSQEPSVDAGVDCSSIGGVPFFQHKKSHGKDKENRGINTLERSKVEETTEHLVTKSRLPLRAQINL
Assay: Wild-type HCT116
Details: pH 6.8
From the text: Cell proliferation assay for wild-type cells

## O=C1CCc2cc(-c3ccc(C(F)(F)F)cc3)ccc2N1 [6-[4-(Trifluoromethyl)phenyl]-3,4-dihydro-2(1H)-quinolinone]
  Ki: 1.7 nM
